Key:
[1] = test system: H929 multiple myeloma tumor line; assay: In vitro cytotoxicity, MTT assay (Example B, Method A); assay type: cell-based; conditions: Homo sapiens, NCI-H929, 48 h, H929 cells, 48 hours exposure, read-out: C50
Experimental: The cytotoxicity studies were carried out on the H929 multiple myeloma tumor line.
The cells are distributed onto microplates and exposed to the test compounds for 48 hours. The cell viability is then quantified by a colorimetric assay, the Microculture Tetrazolium Assay (Carmichael et al, Cancer Res. 1987, 47, 939-942).
The results are expressed in C50 which means concentration corresponding to […] of effect/inhibition.

[2] = molecular target: Cy5-labelled Mcl1 (amino acids 171-321) C286S protein (UniProtKB Q07820) (Homo sapiens (Human), UniProt Q07820, C286S); assay: Inhibition of Mcl-1 by the fluorescence quenching assay (Example A, Method B); assay type: binding
Summary of the method: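 Eleven-point compound series incubated 2 h at room temperature with 1 nM Cy5-tagged protein and quencher-labelled PUMA peptide at 10, 20 or 400 nM in HEPES/NaCl/Tween 20, pH 7.4, 5% DMSO. IC50 for 50% fluorescence increase by 4-parameter fit, then Ki derived (complete cKi or estimated eKi).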

Cy5-labelled Mcl1 (amino acids 171-321) C286S protein, sequence (Q07820 171-321 C286S): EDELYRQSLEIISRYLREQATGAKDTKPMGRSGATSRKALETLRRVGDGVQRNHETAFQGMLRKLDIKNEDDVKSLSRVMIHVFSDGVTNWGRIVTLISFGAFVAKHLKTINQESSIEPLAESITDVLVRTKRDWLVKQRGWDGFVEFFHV

Compound	Ki [2]	IC50 [1]
C[C@@H](COc1ccnc2c1[C@H](C)CCC2)CC1=Cc2c(Cl)cccc2[C@]12CC[C@@](Nc1cccc(Cl)c1)(C(=O)O)CC2 [Example 739, (1r,4R)-4′-chloro-4-(3-chloroanilino)-2′-[(2R)-2-methyl-3-{[(5R)-5-methyl-5,6,7,8-tetrahydroquinolin-4-yl]oxy}propyl]spiro[cyclohexane-1,1′-indene]-4-carboxylic acid]	1.5 nM	87.2 nM
C[C@@H](COc1ccnc2c1[C@H](C)CCC2)CC1=Cc2c(F)c(F)ccc2[C@]12CC[C@@](Nc1cccc(Cl)c1)(C(=O)O)CC2 [Example 744, (1r,4R)-4-(3-chloroanilino)-4′,5′-difluoro-2′-[(2R)-2-methyl-3-{[(5R)-5-methyl-5,6,7,8-tetrahydroquinolin-4-yl]oxy}propyl]spiro[cyclohexane-1,1′-indene]-4-carboxylic acid]	0.342 nM	65.2 nM
C[C@@H](COc1ccnc2c1[C@H](C)CCC2)CC1=Cc2c(Cl)c(F)ccc2[C@]12CC[C@@](Nc1cccc(Cl)c1)(C(=O)O)CC2 [Example 745, (1r,4R)-4′-chloro-4-(3-chloroanilino)-5′-fluoro-2′-[(2R)-2-methyl-3-{[(5R)-5-methyl-5,6,7,8-tetrahydroquinolin-4-yl]oxy}propyl]spiro[cyclohexane-1,1′-indene]-4-carboxylic acid]	1.58 nM	66.4 nM
Cc1cccc2c1C=C(C[C@@H](C)COc1ccnc3c1[C@H](C)CCC3)[C@]21CC[C@](Nc2cccc(Cl)c2)(C(=O)O)CC1 [Example 753, (1r,4R)-4-(3-chloroanilino)-4′-methyl-2′-[(2R)-2-methyl-3-{[(5R)-5-methyl-5,6,7,8-tetrahydroquinolin-4-yl]oxy}propyl]spiro[cyclohexane-1,1′-indene]-4-carboxylic acid]	3.22 nM	111 nM
CC(=O)c1cc(C)c2c(c1)[C@]1(CC[C@@](Nc3cccc(Cl)c3)(C(=O)O)CC1)C(C[C@@H](C)COc1ccnc3c1[C@H](C)CCC3)=C2 [Example 756, (1r,4R)-6′-acetyl-4-(3-chloroanilino)-4′-methyl-2′-[(2R)-2-methyl-3-{[(5R)-5-methyl-5,6,7,8-tetrahydroquinolin-4-yl]oxy}propyl]spiro[cyclohexane-1,1′-indene]-4-carboxylic acid]	1.01 nM	62 nM
C[C@@H](COc1ccnc2c1[C@@H](C)CCC2)C[C@H]1Cc2cccc(F)c2[C@]12CC[C@@](Nc1cccc(Cl)c1)(C(=O)O)CC2 [Example 762, (1r,2′S,4S)-4-(3-chloroanilino)-7′-fluoro-2′-[(2R)-2-methyl-3-{[(5S)-5-methyl-5,6,7,8-tetrahydroquinolin-4-yl]oxy}propyl]-2′,3′-dihydrospiro[cyclohexane-1,1′-indene]-4-carboxylic acid]	12.1 nM	390 nM
C[C@@H](COc1ccnc2c1[C@H](C)CCC2)C[C@H]1Cc2ccc(F)cc2[C@]12CC[C@@](Nc1cccc(Cl)c1)(C(=O)O)CC2 [Example 765, (1r,2′S,4S)-4-(3-chloroanilino)-6′-fluoro-2′-[(2R)-2-methyl-3-{[(5R)-5-methyl-5,6,7,8-tetrahydroquinolin-4-yl]oxy}propyl]-2′,3′-dihydrospiro[cyclohexane-1,1′-indene]-4-carboxylic acid]	0.661 nM	210 nM
C[C@@H](COc1ccnc2c1[C@H](C)CCC2)CC1=Cc2cc(F)ccc2[C@]12CC[C@@](Nc1cccc(Cl)c1)(C(=O)O)CC2 [Example 767, (1r,4R)-4-(3-chloroanilino)-5′-fluoro-2′-[(2R)-2-methyl-3-{[(5R)-5-methyl-5,6,7,8-tetrahydroquinolin-4-yl]oxy}propyl]spiro[cyclohexane-1,1′-indene]-4-carboxylic acid]	0.305 nM	78.8 nM
C[C@@H](COc1ccnc2c1[C@H](C)CC[C@H]2O)CC1=Cc2cc(F)ccc2[C@]12CC[C@@](Nc1cccc(Cl)c1)(C(=O)O)CC2 [Example 770, (1r,4R)-4-(3-chloroanilino)-5′-fluoro-2′-[(2R)-3-{[(5R,8R)-8-hydroxy-5-methyl-5,6,7,8-tetrahydroquinolin-4-yl]oxy}-2-methylpropyl]spiro[cyclohexane-1,1′-indene]-4-carboxylic acid]	0.35 nM	90.6 nM

Further lines, with some results ahead:

Ki [2]	Compound	IC50 [1]
0.349 nM	CC(O)c1ccc2c(c1)[C@]1(CC[C@@](Nc3cccc(Cl)c3)(C(=O)O)CC1)[C@@H](C[C@@H](C)COc1ccnc3ccsc13)C2 (stereo partly drawn) [Example 722, (1r,2′S,4S)-4-(3-chloroanilino)-6′-(1-hydroxyethyl)-2′-{(2R)-2-methyl-3-[(thieno[3,2-b]pyridin-7-yl)oxy]propyl}-2′,3′-dihydrospiro[cyclohexane-1,1′-indene]-4-carboxylic acid]	244 nM
7.68 nM	COCCOc1ccc2c(c1)[C@]1(CC[C@@](Nc3cccc(Cl)c3)(C(=O)O)CC1)[C@H](C[C@@H](C)COc1ccnc3ccsc13)C2 [Example 729, (1r,2′R,4R)-4-(3-chloroanilino)-6′-(2-methoxyethoxy)-2′-{(2R)-2-methyl-3-[(thieno[3,2-b]pyridin-7-yl)oxy]propyl}-2′,3′-dihydrospiro[cyclohexane-1,1′-indene]-4-carboxylic acid]	864 nM
2.1 nM	COCCOc1ccc2c(c1)[C@]1(CC[C@@](Nc3cccc(Cl)c3)(C(=O)O)CC1)[C@@H](C[C@@H](C)COc1ccnc3ccsc13)C2 [Example 730, (1r,2′S,4S)-4-(3-chloroanilino)-6′-(2-methoxyethoxy)-2′-{(2R)-2-methyl-3-[(thieno[3,2-b]pyridin-7-yl)oxy]propyl}-2′,3′-dihydrospiro[cyclohexane-1,1′-indene]-4-carboxylic acid]	210 nM
1.52 nM	Cc1cc2c(cc1C)[C@]1(CC[C@@](Nc3cccc(Cl)c3)(C(=O)O)CC1)[C@@H](C[C@@H](C)COc1ccnc3ccsc13)C2 [Example 733, (1r,2′S,4S)-4-(3-chloroanilino)-5′,6′-dimethyl-2′-{(2R)-2-methyl-3-[(thieno[3,2-b]pyridin-7-yl)oxy]propyl}-2′,3′-dihydrospiro[cyclohexane-1,1′-indene]-4-carboxylic acid]	211 nM
1.98 nM	Cc1cc2c(cc1C)[C@]1(CC[C@@](Nc3cccc(Cl)c3)(C(=O)O)CC1)[C@H](C[C@@H](C)COc1ccnc3ccsc13)C2 [Example 734, (1r,2′R,4R)-4-(3-chloroanilino)-5′,6′-dimethyl-2′-{(2R)-2-methyl-3-[(thieno[3,2-b]pyridin-7-yl)oxy]propyl}-2′,3′-dihydrospiro[cyclohexane-1,1′-indene]-4-carboxylic acid]	194 nM
2.55 nM	C[C@@H](COc1ccnc2ccsc12)C[C@H]1Cc2ccc(F)cc2[C@]12CC[C@@](Nc1cccc(Cl)c1)(C(=O)O)CC2 [Example 735, (1r,2′S,4S)-4-(3-chloroanilino)-6′-fluoro-2′-{(2R)-2-methyl-3-[(thieno[3,2-b]pyridin-7-yl)oxy]propyl}-2′,3′-dihydrospiro[cyclohexane-1,1′-indene]-4-carboxylic acid]	433 nM
5.19 nM	C[C@@H](COc1ccnc2ccsc12)C[C@@H]1Cc2ccc(F)cc2[C@]12CC[C@@](Nc1cccc(Cl)c1)(C(=O)O)CC2 [Example 736, (1r,2′R,4R)-4-(3-chloroanilino)-6′-fluoro-2′-{(2R)-2-methyl-3-[(thieno[3,2-b]pyridin-7-yl)oxy]propyl}-2′,3′-dihydrospiro[cyclohexane-1,1′-indene]-4-carboxylic acid]	1220 nM
0.932 nM	C[C@@H](COc1ccnc2ccsc12)C[C@H]1Cc2cc(F)ccc2[C@]12CC[C@@](Nc1cccc(Cl)c1)(C(=O)O)CC2 [Example 737, (1r,2′S,4S)-4-(3-chloroanilino)-5′-fluoro-2′-{(2R)-2-methyl-3-[(thieno[3,2-b]pyridin-7-yl)oxy]propyl}-2′,3′-dihydrospiro[cyclohexane-1,1′-indene]-4-carboxylic acid]	191 nM
7.4 nM	C[C@@H](COc1ccnc2ccsc12)C[C@@H]1Cc2cc(F)ccc2[C@]12CC[C@@](Nc1cccc(Cl)c1)(C(=O)O)CC2 [Example 738, (1r,2′R,4R)-4-(3-chloroanilino)-5′-fluoro-2′-{(2R)-2-methyl-3-[(thieno[3,2-b]pyridin-7-yl)oxy]propyl}-2′,3′-dihydrospiro[cyclohexane-1,1′-indene]-4-carboxylic acid]	468 nM
2.3 nM	C[C@@H](COc1ccnc2c1[C@H](C)CCC2)C[C@@H]1Cc2ccc(F)cc2[C@]12CC[C@@](Nc1cccc(Cl)c1)(C(=O)O)CC2 [Example 766, (1r,2′R,4R)-4-(3-chloroanilino)-6′-fluoro-2′-[(2R)-2-methyl-3-{[(5R)-5-methyl-5,6,7,8-tetrahydroquinolin-4-yl]oxy}propyl]-2′,3′-dihydrospiro[cyclohexane-1,1′-indene]-4-carboxylic acid]	384 nM
1.52 nM	C[C@@H](COc1ccnc2c1[C@H](C)CCC2)C[C@@H]1Cc2cc(F)ccc2[C@]12CC[C@@](Nc1cccc(Cl)c1)(C(=O)O)CC2 [Example 769, (1r,2′R,4R)-4-(3-chloroanilino)-5′-fluoro-2′-[(2R)-2-methyl-3-{[(5R)-5-methyl-5,6,7,8-tetrahydroquinolin-4-yl]oxy}propyl]-2′,3′-dihydrospiro[cyclohexane-1,1′-indene]-4-carboxylic acid]	125 nM

Source: patent US20240150293A1, “SPIROCYCLOHEXANE DERIVATIVES, PHARMACEUTICAL COMPOSITIONS CONTAINING THEM AND THEIR USES AS ANTI-APOPTOTIC INHIBITORS” (LES LABORATOIRES SERVIER, priority 2021, published 2024)
